Test results from patent US9227923B2, “Pesticidal carboxamides” (Bayer Intellectual Property GmbH, priority 2009, dated 2016).

System: Tobacco Cutworm (Spodoptera litura) Larvae
Experiment: Test against tobacco cutworm (Spodoptera litura) larvae, leaf dip
Assay type: in vivo
Settings: active compound concentration of 100 ppm, third instar larvae, after 7 days; for pest or weed control at 100 ppm: Spodoptera litura, foliar, 168 h, read-out: insecticidal activity
Protocol: Solvent: 3 parts by weight of dimethylformamide
Emulsifier: 1 part by weight of polyoxyethylene alkyl phenyl ether
Leaves of sweet potato were immersed in the test solution at the appropriate concentration, and the leaves were dried in air. The leaves were then placed in a petri dish having a diameter of 9 cm, and ten Spodoptera litura at third instar larvae were released therein. The petri dishes were placed in a temperature-controlled chamber at 25° C. After 2 days and 4 days more sweet potato leaves were added. After 7 days, the number of dead larvae was counted to calculate the insecticidal activity. An insecticidal activity of 100% means that all larvae were killed, whereas an insecticidal activity of 0% means that no larva was killed.

SMILES	insecticidal activity	pest or weed control at 100 ppm
CCc1cc(C(F)(C(F)(F)F)C(F)(F)F)cc(C)c1NC(=O)c1ccc(CNC(=O)C2CC2)c([N+](=O)[O-])c1 [Compound 5-116]	100%	–
CCc1cc(C(F)(C(F)(F)F)C(F)(F)C(F)(F)F)cc(C)c1NC(=O)c1ccc(CN)c(Cl)c1 (centres unmarked) [Compound 5-149]	100%	–
CCc1cc(C(F)(C(F)(F)F)C(F)(F)C(F)(F)F)cc(C)c1NC(=O)c1ccc(CNC(=O)C2CC2)c(I)c1 (centres unmarked) [Compound 5-196]	100%	–
CCc1cc(C(F)(C(F)(F)F)C(F)(F)F)cc(C)c1NC(=O)c1ccc(CNC(C)=O)c2ccccc12 [Compound 6-2]	100%	–
CCc1cc(C(F)(C(F)(F)F)C(F)(F)C(F)(F)F)cc(C)c1NC(=O)c1ccc(CNC(=O)CC2CC2)c(I)c1 (centres unmarked) [Compound 5-197]	100%	–
CCc1cc(C(F)(C(F)(F)F)C(F)(F)F)cc(C)c1NC(=O)c1ccc2c(c1)CCC2NC(C)=O (centres unmarked) [Compound 10-2, 1-acetamide-N-[2-ethyl-4-(1,1,1,2,3,3,3-heptafluoropropan-2-yl)-6-methylphenyl]indane-5-carboxamide]	–	100%
O=C(CC(F)(F)F)NCc1ccc(C(=O)Nc2c(Cl)cc(C(F)(C(F)(F)F)C(F)(F)F)cc2Cl)cc1Cl [Compound 5-232]	100%	–
Cc1cc(C#N)ccc1C(=O)Nc1c(Cl)cc(C(F)(C(F)(F)F)C(F)(F)F)cc1Cl [Compound I-25]	100%	–
O=C(CC1CC1)NCc1ccc(C(=O)Nc2c(Cl)cc(C(F)(C(F)(F)F)C(F)(F)C(F)(F)F)cc2Cl)cc1Cl (centres unmarked) [Compound 5-330]	100%	–
CCC(=O)NCc1ccc(C(=O)Nc2c(C)cc(C(F)(C(F)(F)F)C(F)(F)F)cc2CC)cc1C(F)(F)F [Compound 5-107]	100%	–
CCc1cc(C(F)(C(F)(F)F)C(F)(F)F)cc(C)c1NC(=O)c1ccc(-n2cncn2)c(CNC(=O)OC)c1 [Compound 12-5]	100%	–
Cc1cc(C(F)(C(F)(F)F)C(F)(F)F)cc(Cl)c1NC(=O)c1ccc(C#N)cc1 [Compound I-28]	100%	–
CCC(=O)NCc1ccc(C(=O)Nc2c(C)cc(C(F)(C(F)(F)F)C(F)(F)F)cc2CC)cc1[N+](=O)[O-] [Compound 5-115]	100%	–
CCC(=O)NCc1ccc(C(=O)Nc2c(Cl)cc(C(F)(C(F)(F)F)C(F)(F)F)cc2Cl)cc1Cl [Compound 5-230, 3-chloro-N-[2,6-dichloro-4-(1,1,1,2,3,3,3-heptafluoropropan-2-yl)phenyl]-4-[(propionylamino)methyl]benzamide]	–	100%
CCc1cc(C(F)(C(F)(F)F)C(F)(F)F)cc(C)c1NC(=O)c1ccc(CNC(=O)C(F)(F)F)c(Br)c1 [Compound 5-349]	100%	–
CCC(=O)NCc1ccc(C(=O)Nc2c(C)cc(C(F)(C(F)(F)F)C(F)(F)C(F)(F)F)cc2CC)cc1Br (centres unmarked) [Compound 5-158]	100%	–
CCc1cc(C(F)(C(F)(F)F)C(F)(F)F)cc(C)c1NC(=O)c1ccc(CNC(=O)C2CC2)c(F)c1F [Compound 5-53]	100%	–
CCc1cc(C(F)(C(F)(F)F)C(F)(F)F)cc(C)c1NC(=O)c1ccc(CN)c(Cl)c1 [Compound 5-76]	100%	–
Cc1cc(C(F)(C(F)(F)F)C(F)(F)F)cc(C)c1NC(=O)c1ccc(CNC(=O)CC(F)(F)F)cc1 [Compound 5-7]	100%	–
CCc1cc(C(F)(C(F)(F)F)C(F)(F)F)cc(C)c1NC(=O)c1ccc(CNC(C)=O)c(C)c1 [Compound 5-99]	100%	–
CCc1cc(C(F)(C(F)(F)F)C(F)(F)F)cc(C)c1NC(=O)c1ccc(CNC(=O)CC(F)(F)F)cc1Cl [Compound 5-68]	100%	–

SMILES	insecticidal activity	pest or weed control at 100 ppm
CCc1cc(C(F)(C(F)(F)F)C(F)(F)Br)cc(C)c1NC(=O)c1ccc(CNC(=O)C2CC2)c(Cl)c1 (racemic) [Compound 5-318]	100%	–
O=C(Nc1c(Cl)cc(C(F)(C(F)(F)F)C(F)(F)F)cc1Cl)c1ccc(I)c(Cl)c1 [Compound A-7, 3-chloro-N-[2,6-dichloro-4-(1,1,1,2,3,3,3-heptafluoropropan-2-yl)phenyl]-4-iodobenzamide]	–	100%
O=C(CC1CC1)NCc1ccc(C(=O)Nc2c(Cl)cc(C(F)(C(F)(F)F)C(F)(F)C(F)(F)F)cc2Cl)cc1 (centres unmarked) [Compound 5-325]	100%	–
CCc1cc(C(F)(C(F)(F)F)C(F)(F)F)cc(C)c1NC(=O)c1ccc(-n2cncn2)c(CNC(C)=O)c1 [Compound 12-3, 3-(acetamidemethyl)-N-[2-ethyl-4-(1,1,1,2,3,3,3-heptafluoropropan-2-yl)-6-methylphenyl]-4-(1H-1,2,4-triazol-1-yl)benzamide]	–	100%
CC(C)(C)OC(=O)NCc1ccc(C(=O)Nc2c(Cl)cc(C(F)(C(F)(F)F)C(F)(F)C(F)(F)F)cc2Cl)cc1Cl (centres unmarked) [Compound 5-329]	100%	–
Cc1cc(C(F)(C(F)(F)F)C(F)(F)F)cc(C)c1NC(=O)c1ccc(CNC(=O)c2cccnc2Cl)cc1F [Compound 5-182]	100%	–
CCc1cc(C(F)(C(F)(F)F)C(F)(F)F)cc(C)c1NC(=O)c1ccc(CNC(=O)CC2CC2)c2ccccc12 [Compound 6-5]	100%	–
CCc1cc(C(F)(C(F)(F)F)C(F)(F)F)cc(C)c1NC(=O)c1ccc(CNC(=O)CC(F)(F)F)c(F)c1F [Compound 5-55]	100%	–
CC(=O)NCc1ccc(C(=O)Nc2c(Cl)cc(C(F)(C(F)(F)F)C(F)(F)C(F)(F)F)cc2Cl)cc1 (centres unmarked) [Compound 5-322]	100%	–
CCc1cc(C(F)(C(F)(F)F)C(F)(F)F)cc(C)c1NC(=O)c1ccc(CNC(=O)CC2CC2)cc1Cl [Compound 5-67]	100%	–
Cc1cc(C(F)(C(F)(F)F)C(F)(F)F)cc(Cl)c1NC(=O)c1ccc(CNC(=O)CC2CC2)cc1 [Compound 5-336]	100%	–
CCc1cc(C(F)(C(F)(F)F)C(F)(F)F)cc(C)c1NC(=O)c1ccc(CNC(=O)CC(F)(F)F)nc1 [Compound 8-6]	100%	–
CCC(=O)NCc1ccc(C(=O)Nc2c(C)cc(C(F)(C(F)(F)F)C(F)(F)F)cc2CC)c(Cl)c1 [Compound 5-66]	100%	–
CCc1cc(C(F)(C(F)(F)F)C(F)(F)F)cc(C)c1NC(=O)c1ccc(CNC(=O)C2CC2)c2ccccc12 [Compound 6-4]	100%	–
CCc1cc(C(F)(C(F)(F)F)C(F)(F)F)cc(C)c1NC(=O)c1ccc(C#N)cc1 [Compound I-2]	100%	–
Cc1cc(C(F)(C(F)(F)F)C(F)(F)F)cc(C)c1NC(=O)c1ccc(CNC(=O)c2cccnc2F)cc1 [Compound 5-19]	100%	–
CCc1cc(C(F)(C(F)(F)F)C(F)(F)F)cc(C)c1NC(=O)c1ccc(CNC(=O)CC2CC2)cc1 [Compound 5-31]	100%	–
CCC(=O)NCc1ccc(C(=O)Nc2c(C)cc(C(F)(C(F)(F)F)C(F)(F)F)cc2CC)cc1I [Compound 5-191]	100%	–
CCC(=O)NCc1ccc(C(=O)Nc2c(C)cc(C(F)(C(F)(F)F)C(F)(F)F)cc2CC)c2ccccc12 [Compound 6-3]	100%	–
CCc1cc(C(F)(C(F)(F)F)C(F)(F)F)cc(C)c1NC(=O)c1ccc(CNC(=O)c2ccccc2Cl)cc1 [Compound 5-37]	100%	–
